According to patent US20210000953A1, “USE OF IMMUNE CHECKPOINT INHIBITORS IN CENTRAL NERVOUS SYSTEMS NEOPLASMS” (Bristol-Myers Squibb Company, priority 2014, published 2021):
Entries after “also recorded” stand apart in the source; their conditions may differ.

Legend:
[1] = tested on: subjects with recurrent GBM; experiment: Study CA209143 safety lead-in cohorts (Cohort 1, 1b): safety, tolerability and patient disposition; format: in vivo, human
Experimental: This is the first study examining monoclonal antibodies targeting immune checkpoint inhibitors in subjects with recurrent GBM. To ensure that nivolumab monotherapy and nivolumab in combination with ipilimumab are tolerable, safety lead-in cohorts (Cohort 1, 1b) evaluating the tolerability of two different treatment regimens were initiated prior to advancing a treatment arm into Cohort 2. Cohort 1 examined in a randomized fashion the safety and tolerability of nivolumab monotherapy dosed at 3 mg/kg every 2 weeks or nivolumab 1 mg/kg+ipilimumab 3 mg/kg every 3 weeks for four doses, then nivolumab 3 mg/kg every 2 weeks thereafter. Cohort 1b examined, in a non-randomized fashion, the safety and tolerability of nivolumab 3 mg/kg+ipilimumab 1 mg/kg every 3 weeks for four doses, then nivolumab 3 mg/kg every 2 weeks thereafter.
A randomized, open-label, multicenter, phase 3 study of nivolumab monotherapy versus bevacizumab and a safety study of nivolumab and nivolumab in combination with ipilimumab is conducted in adult (>18 years) subjects with a first recurrence of GBM after treatment with radiotherapy and temozolomide. Since the use of nivolumab and ipilimumab has not previously been studied in subjects with GBM, a safety lead-in (Cohort 1) consisting of approximately 10 subjects in each of two treatment arms are enrolled and randomized to treatment with either Arm N (nivolumab monotherapy) or Arm N+I (nivolumab combined with ipilimumab). Tolerability and safety of a treatment arm is determined after all subjects in the arm completed four doses or discontinued dosing prior to completing four doses. A safety evaluation of Cohort 1 is conducted for each arm based on criteria described herein.
Subjects will be evaluated for safety if they have received any study drug. […]
The causal relationship to study drug is determined by a physician and should be used to assess all adverse events (AE). […]
Tolerability and safety of a treatment arm was determined after all subjects per arm have completed four doses or discontinued dosing prior to completing four doses. […]

[2] = tested on: TILs and PBMCs; experiment: Anti-tumor-associated antigen (TAA) activity, dual-color IFNγ/granzyme B FluoroSpot assay; format: cell-based, human; settings: cells isolated from patients treated with nivolumab monotherapy (FIG. 17)
Experimental: Analyses were performed on peripheral blood drawn from patients at predetermined time points (FIG. 13) and tumor tissue samples were obtained if resection was performed at the time of progression or suspected progression. Baseline and on-treatment samples were obtained from patients (n=20) randomized 1:1 to receive either nivolumab 3 mg/kg every 2 weeks (Q2W) or nivolumab 1 mg/kg+ipilimumab 3 mg/kg every 3 weeks followed by nivolumab 3 mg/kg Q2W (FIG. 13). Phenotypic, maturation, and proliferation analyses were performed using flow cytometry with population-specific antibody panels (Table 11). Cytokine release analyses were carried out on supernatants from sorted Tregs (CD4+CD25+CD127−)±stimulation (PMA+ionomycin). The anti-tumor-associated antigen (TAA) activity of peripheral blood mononuclear cells (PBMCs) and tumor-infiltrating lymphocytes (TILs) was evaluated. Cells were stimulated with interleukin (IL)-2, IL-15, and TAA peptides; after 9 days of culture with IL-2 and IL-15, cells were restimulated with IL-2, IL-15, and TAA peptides. Production of interferon (IFN)γ/granzyme B was assayed using a dual-color FluoroSpot assay.

[3] = tested on: resected GBM tumor tissue; experiment: Histopathology of tumor tissue resected at suspected progression; format: in vivo, human
Description: In those cases in which radiologic progression cannot be differentiated from pseudoprogression and it is the investigator's opinion that a surgical resection to obtain tumor tissue for histopathology is in the subject's best interests, a surgical resection may be performed following consultation with the BMS medical monitor. Tumor biopsy samples (blocks or slides) must be submitted for central review by a neuropathologist to minimize any inter-observer variation in the histopathologic assessment of progression versus treatment-related changes. If tumor pathology confirms progression, then the subject will be discontinued from study medication per protocol discontinuation criteria and the date of progression will be the day that it was first suspected. […] An MRI after the resection is required prior to treatment continuation. The subject will then continue all on-treatment tumor assessments as per the treatment schedule.
In those cases in which radiologic progression cannot be differentiated from pseudoprogression and the subject undergoes a biopsy or diagnostic surgical resection to obtain tumor tissue for histopathology analysis, representative tumor tissue samples will be reviewed locally and submitted for central review by a neuropathologist. If there is discordance between the central and local neuropathologic determination of progression versus treatment-associated changes (pseudoprogression), then a second central neuropathologic review will be performed and serve as the final adjudication of the histopathologic determination. Central review of histopathology will be blinded to the subject treatment arm assignment. Specific instructions will be provided to the investigative sites regarding the requirements for submission of tumor tissue for central neuropathologic review.

[4] = case: nivolumab 3 mg/kg, after five treatments

Substance: nivolumab
- Patients in the study: Died ([1]; Cohort 1, N = 10 per arm, same regimens, deaths in both arms were due to disease, cutoff Sep. 9, 2015): 7 (70) n (%)
- Deaths due to drug toxicity ([1]; Cohort 1, nivolumab 3 mg/kg monotherapy arm and nivolumab 1 mg/kg + ipilimumab 3 mg/kg combination arm, N = 10 each): no deaths due to drug toxicity
- Reason for not continuing on treatment: Disease Progression ([1]; Cohort 1, recurrent GBM, N = 10 per arm, nivolumab 3 mg/kg Q2W or nivolumab 1 mg/kg + ipilimumab 3 mg/kg Q3W x4 then nivolumab 3 mg/kg Q2W, cutoff Sep. 9, 2015): 9 (90) n (%)
- Anti-TAA activity of TILs and PBMCs upon restimulation [2]: increased anti-TAA activity; also recorded: functional responses to TAAs in both TILs and PBMCs
- Histopathology of the resected tumor ([3]; case: after five doses of nivolumab 3 mg/kg Q2W, suspected progression): immune infiltration consistent with treatment-related changes; also recorded: consistent with significant treatment-related changes
- Pathology review of resection, occipital area [3, 4]: viable tumor in samples from the occipital area with infiltrating T-lymphocytes
- Pathology review of resection, periventricular area [3, 4]: only necrosis and fibrinous exudate (radiation necrosis) and large aggregates of lymphocytes with no tumor
